Source: patent US20240148671A1, “METHODS FOR IMPROVING POULTRY HEALTH” (CORNELL UNIVERSITY, priority 2021, published 2024)
Entries after “also recorded” stand apart in the source; their conditions may differ. Read-outs that look alike come from different tables or passages of the source. Marks after values point to notes of the source that are not given here.

Assays:
Liver Ferritin = assay: Liver ferritin; type: in vivo, Gallus gallus; conditions: intra-amniotic 1 mL/egg on day 17, at hatch, mean ± SEM, n=5
Procedure: (§1) The pure resveratrol and pterostilbene were individually diluted in 18 MΩ H2O. The intra-amniotic administration followed the methodology previously described. On the 17th day of embryonic development, the eggs with viable embryos (n=60) were randomly allocated into 6 groups (n=10) with a similar weight frequency distribution. For the intra-amniotic treatment, 1 mL of solution per egg was injected into the amniotic fluid (via candling) with the aid of a 21-gauge needle. After the procedure, the injection sites were sealed with cellophane tape, and the eggs were distributed into six groups: (1) no injection; (2) 18 MΩ H2O; (3) 5% inulin; (4) 5% resveratrol; (5) 5% pterostilbene; and (6) synergistic: 4.75% resveratrol and 0.25% pterostilbene. […] The eggs were equally distributed in each incubator location to reduce possible allocation bias. Upon hatching (21 days), the hatchlings were euthanized by CO2 exposure, and the blood, liver, heart, pectoral muscle, small intestine and cecum were obtained.

[1] = absorption in the gut lumen, literature refs 11, 12 (Kapetanovic et al.; Walle), cited from earlier work
[2] = Body weight, cecum weight and cecum:body weight ratio; type: in vivo, Gallus gallus; conditions: intra-amniotic 1 mL/egg on day 17; at hatch (day 21); mean ± SEM, n=8
Procedure: as §1

[3] = Glycogen in pectoral muscle; type: in vivo, Gallus gallus; conditions: intra-amniotic 1 mL/egg on day 17, at hatch, mean ± SEM, n=8
Procedure: as §1

[4] = Fe and Zn content in the serum and liver samples; type: in vivo, Gallus gallus; conditions: intra-amniotic 1 mL/egg on day 17, at hatch, mean ± SEM, n=8
Procedure: as §1
The serum (50 μL) and liver (0.5 g) samples were mixed with 3.0 mL of a 60:40 (v/v) solution of nitric acid (HNO3) and perchloric acid (HClO4) and incubated overnight. After this, the samples were heated for 2 hours at 120° C. and added to 0.25 mL of 40 μg/g yttrium (internal standard), and the block temperature was increased to 145° C. for 2 h and then 190° C. for 10 min. At the end of these procedures, the samples were cooled, diluted to a total volume of 20 mL, mixed and transferred into autosampler tubes for analysis (inductively coupled plasma atomic emission spectrometer) (Thermo, Franklin, MA, USA).

hemoglobin (Hb) = assay: Blood hemoglobin (Hb) after intra-amniotic administration; type: in vivo, Gallus gallus; conditions: intra-amniotic 1 mL/egg on day 17; blood at hatch (day 21); mean ± SEM
Procedure: as §1
Blood was collected using micro-hematocrit heparin-coated capillary tubes (Fisher Scientific, Waltham, MA, USA). The hemoglobin (Hb) concentration was assessed spectrophotometrically using the QuantiChrom™ Hb Assay (DIHB-250, BioAssay Systems, Hayward, CA, USA) and according to specific instructions.

[5] = test system: duodenal tissue (villi, crypts, goblet cells); assay: Morphometric examination of duodenal tissue; type: in vivo, Gallus gallus; conditions: intra-amniotic 1 mL/egg on day 17, at hatch, mean ± SEM, n=5; for Depth of Crypts (μm) / Mucus Layer Width (μm) / Villus Diameter (μm) / Villus Length (μm): duodenum; for Crypt Goblet Cell Number / Goblet Cell Diameter (μM) / Villus Goblet Cell Type Number, Acidic / Villus Goblet Cell Type Number, Mixed / Villus Goblet Cell Type Number, Neutral: small intestine
Procedure: as §1
Villus epithelium analysis was conducted as previously published. The duodenal samples were soaked in buffered formaldehyde (4% (v/v)), dehydrated, cleared and embedded in paraffin. Numerous sections were cut with a thickness of 5 μm and put on slides. The sections were deparaffinized in xylene, after which they were rehydrated in a series of graded alcohol. Finally, the slides were stained with Alcian Blue-periodic acid-Schiff and investigated under a light microscopy. The variables were assessed (light microscope, EPIX XCAP software, standard version, Olympus, Waltham, MA, USA) for the following: villus length, villus diameter, depth of crypts, goblet cell diameter, crypt goblet cell number and villus goblet cells type number (acidic, neutral or mixed). Four segments for each biological sample and five biological samples per treatment group were examined. The goblet cells were enumerated at 10 villi/sample, and the means were calculated for statistical analysis.

cecal microbiome = assay: 16S rRNA gene sequencing of the cecal microbiota; type: in vivo, Gallus gallus; conditions: cecal content at hatch, n=5; 5% inulin vs all other experimental groups (p<0.01); 5% pterostilbene vs 18 MΩ H2O control (p<0.05); stilbene groups among each other
Procedure: as §1
As was formerly described, cecal samples were used to extract microbial genomic DNA (PowerSoil DNA isolation kit, MoBio Laboratories Ltd., Carlsbad, CA, USA). […] The PCR products were purified (Beckman Coulter, Atlanta, GA, USA) and quantified (Quant-iT PicoGreen dsDNA quantitation kit, Invitrogen, Carlsbad, CA, USA). […]
The 16S rRNA gene sequence analysis was performed using QIIME2 as previously described. The sequence reads were demultiplexed by per-sample barcodes, and the Divisive Amplicon Denoising Algorithm (DADA2) was used to correct the Illumina-sequenced amplicon read errors. […] The alpha and β diversity were calculated from samples containing at least 9.800 sequences. The alpha diversity parameter, a measure of the richness of the bacterial community, was calculated using the Shannon Index, and the beta diversity was assessed by a Jaccard similarity distance matrix. […]
The values in this paper were expressed as means and standard errors of the means (SEM). […] The results were analyzed by Analysis of Variance (ANOVA). […]

## COc1cc(/C=C/c2ccc(O)cc2)cc(OC)c1 [5% Pterostilbene, Pterostilbene]
Liver Ferritin
  Liver Ferritin (A.U.): 1.011 ± 0.351^bc A.U.
[1]
  bioavailability: 80%
[1]; listed as pterostilbenes
  bioavailability: about 80%
[2]
  Body Weight Average (g): 46.7 ± 0.7^a g
  Cecum Weight Average (g): 0.6 ± 0.1^a g
  Cecum:Body Weight Ratio: 0.013 ± 0.001^a
[3]
  Glycogen (mg/g): 0.033 ± 0.010^a mg/g
[4]
  Liver Iron (μg/g): 37.43 ± 1.52 ^ab μg/g
  Liver Zinc (μg/g): 14.43 ± 0.49 ^b μg/g
  Serum Iron (μg/g): 2.94 ± 0.44 ^b μg/g
  Serum Zinc (μg/g): 1.33 ± 0.20 ^a μg/g
Hemoglobin (Hb)
  Hb (g/dL): 8.95 ± 0.77^a g/dL
[5]
  Depth of Crypts (μm): 66.41 ± 1.19^a μm
  Mucus Layer Width (μm): 3.76 ± 0.10^e μm
  Villus Diameter (μm): 81.33 ± 4.95^a μm
  Villus Length (μm): 451.58 ± 11.21^b μm
  Crypt Goblet Cell Number: 10.04 ± 0.18 ^c
  Goblet Cell Diameter (μM): 7.81 ± 0.07 ^b μM
  Villus Goblet Cell Type Number, Acidic: 10.78 ± 0.22 ^ab
  Villus Goblet Cell Type Number, Mixed: 0.28 ± 0.05 ^b
  Villus Goblet Cell Type Number, Neutral: 0.00 ± 0.00 ^b

## inulin [5% Inulin, reference compound]
Liver Ferritin
  Liver Ferritin (A.U.): 0.148 ± 0.005^c A.U.
Cecal microbiome
  β diversity of the cecal microbiome (Jaccard distances), comparison between groups: statistical differences; also recorded: differed
[2]
  Body Weight Average (g): 49.7 ± 0.9^a g
  Cecum Weight Average (g): 0.6 ± 0.1^a g
  Cecum:Body Weight Ratio: 0.012 ± 0.001^a
[3]
  Glycogen (mg/g): 0.029 ± 0.005^a mg/g
[4]
  Liver Iron (μg/g): 48.96 ± 4.39 ^a μg/g
  Liver Zinc (μg/g): 18.23 ± 0.88 ^ab μg/g
  Serum Iron (μg/g): 2.76 ± 0.33 ^b μg/g
  Serum Zinc (μg/g): 0.97 ± 0.08 ^bc μg/g
Hemoglobin (Hb)
  Hb (g/dL): 8.86 ± 0.69^a g/dL
[5]
  Depth of Crypts (μm): 51.30 ± 1.07^b μm
  Mucus Layer Width (μm): 5.27 ± 0.13^c μm
  Villus Diameter (μm): 44.57 ± 0.79^d μm
  Villus Length (μm): 262.54 ± 3.76^d μm
  Crypt Goblet Cell Number: 12.27 ± 0.33 ^a
  Goblet Cell Diameter (μM): 7.12 ± 0.06 ^d μM
  Villus Goblet Cell Type Number, Acidic: 10.65 ± 0.25 ^ab
  Villus Goblet Cell Type Number, Mixed: 0.02 ± 0.01 ^e
  Villus Goblet Cell Type Number, Neutral: 0.00 ± 0.00 ^b
